Assay results as given in patent US8258311B2, “Human protein tyrosine phosphatase inhibitors and methods of use” (Aerpio Therapeutics Inc., priority 2006, dated 2012).

Key:
[1] = molecular target: HPTPβ (Homo sapiens, UniProt P23467); assay: HPTPβ inhibition (IC50); format: biochemical
[2] = molecular target: T1, PTP1B (Homo sapiens, UniProt P18031); assay: PTP1B inhibition (IC50); format: biochemical
T1 sequence (P18031 1-435): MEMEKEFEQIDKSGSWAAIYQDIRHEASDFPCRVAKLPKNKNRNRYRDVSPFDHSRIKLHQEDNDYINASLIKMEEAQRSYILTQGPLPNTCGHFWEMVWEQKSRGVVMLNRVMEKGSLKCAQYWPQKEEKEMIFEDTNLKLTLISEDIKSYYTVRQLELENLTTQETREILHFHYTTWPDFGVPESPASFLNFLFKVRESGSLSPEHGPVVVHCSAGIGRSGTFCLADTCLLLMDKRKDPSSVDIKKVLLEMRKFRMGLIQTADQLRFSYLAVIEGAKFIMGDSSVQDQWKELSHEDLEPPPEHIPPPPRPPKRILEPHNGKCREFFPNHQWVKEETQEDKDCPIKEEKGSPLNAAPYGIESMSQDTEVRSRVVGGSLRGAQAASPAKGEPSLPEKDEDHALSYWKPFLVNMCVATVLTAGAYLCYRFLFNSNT

[3] = tested on: hindlimb ischemia; assay: Rat hindlimb model of collateral development: blood flow during treadmill exercise (microspheres); format: in vivo
Excerpt: The Rat hindlimb model is used to evaluate angiogenic properties of novel HPTPb inhibitors. Specifically to determine if there is enhanced blood flow to the collateral dependent region of the leg post ischemia when the animal is in an exercise challenged state. […] An initial surgery is done to create hindlimb ischemia and implant osmotic pumps essentially as previously described with minor alterations. […] Following induction, animals are transferred to a surgical mat and anesthesia is continued via a non-rebreathing circuit. A warming lamp is positioned above the rat and a rectal probe is placed to monitor the animal's body temperature. The groin areas bilaterally are clipped and prepared with alternating Betadine and alcohol scrubs (3×) and a sterile drape is placed over the rat. The left femoral artery is exposed through a skin incision and subsequently ligated in two positions 1 cm apart; distal to the inguinal ligament and proximal to the femoral circumflex artery. The skin is closed using either skin staples or Vetbond. The same procedure is repeated on the right side. […] Prior to implantation, osmotic pumps are filled with VEGF165 solution at a dose of 15 μg/kg/day, and primed overnight inside sterile saline beakers in a water bath (37° C.). Stretched PESO catheters coated with PPG (Poly propylene glycol Aldrich # 20-235-5) are attached using sterile technique and in accordance with manufacture's instructions the afternoon prior to surgery. For pump placement, an incision is made to expose the right jugular vein, an area is tunneled SubQ from the right side of the neck to the back and the pump is placed in the resulting SubQ pocket. The vessel is ligated with 4-0 silk, a cut is made in the vessel just distal to the tie and the catheter from the osmotic pump is threaded down stream (approx 2 cm) and secured with a second tie. The skin is closed in the same manner as above. Two weeks after the ligation surgery the rat underwent a second acute surgery to place indwelling catheters for microsphere measurements. Rats are anesthetized as described above. The animal is clipped, prepped, and EMLA cream is applied to each entry site. First an incision is made longitudinally at the ventral base of the tail using a 10 blade. A tapered PE 50 catheter is inserted approximately 3 cm into the ventral tail artery and anchored into place. The end of the catheter is then wrapped around the tail and tunneled SubQ over the back, exiting between the shoulder blades. Following tail artery cannulation, a midline neck incision is made to expose the left carotid artery for occlusive cannulation. A tapered PE 50 catheter is placed 3 cm into the carotid and the distal end is tunneled SubQ, exiting between the shoulder blades. The neck is closed with either skin stables or Vetbond and EMLA cream is applied. The exit site is closed around the catheters with a purse string suture stitch. The ends of the catheters are cauterized shut and the rat is allowed to recover from anesthesia for at least 4 hours. For blood flow measurements, rats are placed onto the treadmill and the catheters are connected to extension tubing via 22 gage male-male connectors. For microsphere withdrawals and blood pressure measurements, the tail artery catheter is connected to a syringe (coated with tween and heparin-), which is “T” Ed to a withdrawal pump and a pressure transducer. The carotid catheter is used for injecting the microspheres. The rat began running at speed 20 m/min and an elevation of 7°. […] The pump is set to stop at 90 seconds. The […] stopped, the extension lines are replaced and the animal's lines are flushed, and the animal allowed to rest. The syringe and lines are removed from the pump and the reference blood sample is place in a labeled tube for processing. […] At the completion of the second run, the animal is euthanized with 0.3 ml of Buthaneasia. Following euthanasia, tissues are removed, trimmed, weighed, recorded, and placed in marked tubes for processing. […]

HPTPβ, sequence (P23467 23-1997): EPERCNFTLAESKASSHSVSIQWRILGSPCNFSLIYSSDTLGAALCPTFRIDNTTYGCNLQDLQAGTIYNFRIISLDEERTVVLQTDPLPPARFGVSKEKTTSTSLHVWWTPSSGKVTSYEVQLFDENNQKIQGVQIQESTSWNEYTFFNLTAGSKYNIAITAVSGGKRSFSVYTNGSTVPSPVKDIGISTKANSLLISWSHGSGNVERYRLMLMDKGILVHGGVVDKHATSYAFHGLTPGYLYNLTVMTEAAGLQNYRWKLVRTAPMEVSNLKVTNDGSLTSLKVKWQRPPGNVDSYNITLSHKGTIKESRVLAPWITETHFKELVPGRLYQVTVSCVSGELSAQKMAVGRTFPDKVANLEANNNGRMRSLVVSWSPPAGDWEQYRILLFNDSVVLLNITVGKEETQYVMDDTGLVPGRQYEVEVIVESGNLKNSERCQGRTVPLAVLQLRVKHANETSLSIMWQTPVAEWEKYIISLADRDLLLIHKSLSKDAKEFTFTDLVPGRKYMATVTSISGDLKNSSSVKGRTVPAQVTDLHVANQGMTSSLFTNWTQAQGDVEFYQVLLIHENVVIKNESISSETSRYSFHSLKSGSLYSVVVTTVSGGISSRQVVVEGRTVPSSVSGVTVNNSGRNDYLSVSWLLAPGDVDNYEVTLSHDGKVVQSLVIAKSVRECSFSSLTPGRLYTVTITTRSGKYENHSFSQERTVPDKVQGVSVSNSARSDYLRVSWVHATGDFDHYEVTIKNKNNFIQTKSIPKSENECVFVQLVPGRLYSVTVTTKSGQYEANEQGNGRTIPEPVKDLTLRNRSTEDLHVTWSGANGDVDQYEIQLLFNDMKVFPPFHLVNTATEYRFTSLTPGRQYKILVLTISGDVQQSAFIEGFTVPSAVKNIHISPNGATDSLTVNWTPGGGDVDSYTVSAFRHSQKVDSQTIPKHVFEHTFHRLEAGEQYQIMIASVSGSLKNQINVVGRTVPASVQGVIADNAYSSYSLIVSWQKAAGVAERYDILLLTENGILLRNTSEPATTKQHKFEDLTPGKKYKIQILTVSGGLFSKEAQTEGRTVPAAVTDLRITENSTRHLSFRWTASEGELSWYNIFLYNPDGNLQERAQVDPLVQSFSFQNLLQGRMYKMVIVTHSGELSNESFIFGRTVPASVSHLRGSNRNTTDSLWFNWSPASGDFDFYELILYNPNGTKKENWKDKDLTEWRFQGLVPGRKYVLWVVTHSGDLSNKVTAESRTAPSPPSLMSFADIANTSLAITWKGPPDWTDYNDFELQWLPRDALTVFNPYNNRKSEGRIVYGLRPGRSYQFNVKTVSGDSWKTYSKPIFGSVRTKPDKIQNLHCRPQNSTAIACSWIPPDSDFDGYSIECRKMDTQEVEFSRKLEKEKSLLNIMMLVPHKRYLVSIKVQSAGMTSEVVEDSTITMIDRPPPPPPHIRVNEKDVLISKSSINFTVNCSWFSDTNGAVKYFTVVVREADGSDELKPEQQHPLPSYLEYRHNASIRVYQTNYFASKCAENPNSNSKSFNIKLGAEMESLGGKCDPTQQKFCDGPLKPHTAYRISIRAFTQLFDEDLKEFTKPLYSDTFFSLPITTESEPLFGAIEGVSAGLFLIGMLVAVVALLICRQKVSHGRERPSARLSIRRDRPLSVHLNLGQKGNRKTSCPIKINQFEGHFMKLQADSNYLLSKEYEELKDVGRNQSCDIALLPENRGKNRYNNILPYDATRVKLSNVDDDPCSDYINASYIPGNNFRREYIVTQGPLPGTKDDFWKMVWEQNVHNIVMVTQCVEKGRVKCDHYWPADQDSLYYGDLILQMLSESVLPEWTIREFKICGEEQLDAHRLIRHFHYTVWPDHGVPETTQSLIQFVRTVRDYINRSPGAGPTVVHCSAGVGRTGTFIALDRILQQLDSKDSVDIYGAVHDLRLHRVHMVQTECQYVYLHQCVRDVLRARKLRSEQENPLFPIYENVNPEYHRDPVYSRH

Row | Compound | IC50 [1] [nM] | IC50 [2] [nM] | Blood Flow During exercise Calf (GPS) ([3]; VEGF 15 μg/kg/d, mean ± SE) [ml/min/100 g] | GPS blood flow over the Vehicle control groups ([3]; VEGF treatment groups)
1 | COCc1csc([C@H](Cc2ccc(NS(=O)(=O)O)cc2)NC(=O)OC(C)(C)C)n1 [(S)-4-(2-(tert-Butoxycarbonylamino)-2-(4-(methoxymethyl)thiazol-2-yl)ethyl)-phenyl sulfamic acid] | 180 | 27600 | – | –
2 | CCCc1csc([C@H](Cc2ccc(NS(=O)(=O)O)cc2)NC(=O)OC(C)(C)C)n1 [(S)-4-(2-(tert-Butoxycarbonylamino)-2-(4-propylthiazol-2-yl)ethyl)phenyl sulfamic acid] | 40 | 35600 | – | –
3 | CC(C)(C)OC(=O)N[C@@H](Cc1ccc(NS(=O)(=O)O)cc1)c1nc(C(C)(C)C)cs1 [(S)-4-(2-(tert-Butoxycarbonylamino)-2-(4-tert-butylthiazol-2-yl)ethyl)phenyl sulfamic acid] | 27 | 50000 | – | –
4 | CC(C)(C)OC(=O)N[C@@H](Cc1ccc(NS(=O)(=O)O)cc1)c1ncc(-c2ccccc2)s1 [(S)-4-(2-(tert-Butoxycarbonylamino)-2-(5-phenylthiazol-2-yl)ethyl)-phenyl sulfamic acid] | 308 | 11400 | – | –
5 | CCc1csc([C@H](Cc2ccc(NS(=O)(=O)O)cc2)NC(=O)CNC(=O)OC)n1 [(S)-4-{2-(4-Ethylthiazol-2-yl)-2-[2-(methoxycarbonylamino)acetamido]ethyl}phenylsulfamic acid] | 20 | 5260 | – | –
6 | CCc1csc([C@H](Cc2ccc(NS(=O)(=O)O)cc2)NC(=O)CNC(=O)OC(C)(C)C)n1 [(S)-4-{2-[2-(tert-Butoxycarbonylamino)acetamido]-2-(4-ethylthiazol-2-yl)ethyl}phenylsulfamic acid] | 28 | 16000 | – | –
7 | CC(C)(C)C(=O)N[C@@H](Cc1ccc(NS(=O)(=O)O)cc1)c1nc(CO)cs1 [(S)-4-{2-[4-(hydroxymethyl)thiazol-2-yl]-2-pivalamidoethyl}phenyl-sulfamic acid] | 266 | 50000 | – | –
8 | CCOC(=O)c1csc([C@H](Cc2ccc(NS(=O)(=O)O)cc2)NC(=O)C(C)(C)C)n1 [(S)-4-{[2-(4-Ethoxycarbonyl)thiazol-2-yl]-2-pivalamidoethyl}phenylsulfamic acid] | 584 | 44900 | – | –
9 | CCc1csc([C@H](Cc2ccc(NS(=O)(=O)O)cc2)NC(=O)Cc2ccccc2)n1 [(S)-{4-[2-(4-Ethylthiazol-2-yl)-2-(phenylacetylamino)ethyl]-phenyl}sulfamic acid] | 0.157 | 722 | – | –
10 | CC(C)(C)OC(=O)N[C@@H](Cc1ccc(NS(=O)(=O)O)cc1)c1nc(-c2ccccc2)cs1 [[1-(S)-(Phenylthiazol-2-yl)-2-(4-sulfoaminophenyl)ethyl]-carbamic acid tert-butyl ester] | 49 | 33000 | – | –
11 | (S)-4-(2-(tert-Butoxycarbonyl)-2-(4-(2-(2-methoxy-2-oxoyethyl amino)-2-oxoethyl)thiazole-2-yl)ethyl)phenylsulfamic acid | 132 | 50000 | – | –
12 | (S)-4-(2-(tert-Butoxycarbonylamino)-2-(2-pivalamidothiazol-4-yl)ethyl)phenylsulfamic acid | 555 | 9120 | – | –
13 | VEGF | – | – | 76 ± 1.1 | significant improvement
